Entries after “also recorded” stand apart in the source; their conditions may differ.
Assays:
[1] = tested on: transgenic Drosophila engineered to express the mutant huntingtin protein in all their neurons; conditions: cited from earlier work
[2] = tested on: wildtype Drosophila fruit flies; assay: Toxicity of dimebon in wild type Drosophila (eclosion number and timing); assay type: in vivo; conditions: FIG. 1
Experimental: Dimebon was evaluated for toxicity levels in wildtype Drosophila fruit flies. Dimebon was administered daily at doses ranging from 10 μM to 1 mM to explore its toxicity. An untreated control group was also studied in this experiment. The concentrations given were concentrations of dimebon in the food that animals drink/eat ad libitum. The food consisted of cornmeal (61.2 g), dextrose (129.4. g), yeast (32.4 g) and agar (9.3 g) in 1 liter of water. Concentrated compounds were added to melted agar food cooled to just above the point of setting (about 40° C.), mixed and dispensed.
About 500 wild type Drosophila eggs were collected on grape juice plates for 20 hours, washed with distilled water and transferred 100 per vial to grow at 25 degrees C. The adult progeny were scored after eclosing (emerging from the pupal case) beginning 10 days later to assess developmental delay and toxicity. The criteria used for toxicity were the number (%) of animals that eclose and the time of the eclosing. For example, fewer animals may emerge from the pupal case if a drug is toxic or the same number of animals may eclose but more slowly than the untreated control group.
The toxicity test employed five concentrations (10 μM, 30 μM, 100 μM, 300 μM, 1 mM) plus an untreated control and was repeated with five sets of flies. […]

[3] = tested on: transgenic Drosophila engineered to express the mutant huntingtin protein in all their neurons; assay: Inhibition of mutant huntingtin-induced neurodegeneration of photoreceptor neurons (pseudopupil method); assay type: in vivo; conditions: for rescue of photoreceptor neurons compared to untreated controls: FIG. 2; for suppression of photoreceptor neuron degeneration, retest: FIG. 3
Experimental: Dimebon was administered to one group of transgenic Drosophila engineered to express the mutant huntingtin protein in all their neurons. This was accomplished by cloning a foreign gene into transposable p-element DNA vectors under control of a yeast upstream activator sequence that is activated by the yeast GAL4 transcription factor. These promoter fusions were injected into fly embryos to produce transgenic animals. The foreign gene is silent until crossed to another transgenic strain of flies expressing the GAL4 gene in a tissue specific manner. The Elav>Gal4 which expresses the transgene in all neurons from birth until death was used in the experiments described.
For compound testing, 20-30 Httex1pQ93 virgins were mated to elav>Gal4 males and eggs were collected for about 20 hours at 25° C. and dispensed into vials (expected about 70% lethality from Htt effects). Upon eclosion, at least 80, 0-8 hour old flies were harvested and place on drug-containing food (20 eclosed adults per vial) and scored when 7 days old. Inhibitor-containing food was prepared just before tester flies began to emerge.
The two types of transgenic animals were crossed in order to collect enough closely matched aged controls to study. The crossed aged-matched adults (about 20 per dosing group) were placed on drug-containing food for 7 days. Animals were transferred to fresh food daily to minimize any effects caused by instability of the compounds. Survival was scored daily. The average number of photoreceptors at day zero was determined by scoring 7-10 of the newly eclosed tester siblings within six hours of eclosing. This established the baseline of degeneration at the time of exposure to drug. At day 7, animals were sacrificed and the number of photoreceptor neurons surviving was counted. […] For pseudopupil analysis, flies were decapitated and the heads are mounted in a drop of nail polish on a microscopic slide. The head was then covered with immersion oil and light is projected through the eye of the fly using a Nikon EFD-3/Optiphot-2 compound microscope with a 50× oil objective.

[4] = tested on: transgenic Drosophila engineered to express the mutant huntingtin protein in all their neurons; assay: Climbing assay (motor function) in Drosophila model of Huntington's disease; assay type: in vivo
Experimental: The motor function of Drosophila obtained as described in the examples above was assessed by exploiting the strong negative geotropism of flies to climb upwards when they are tapped to the bottom of a vial. See, Le Bourg and Lint (1992) Hypergravity and aging in Drosophila melanogaster. 4. […] activity. Gerontology 38, 59-64. Animals were placed in a graduated vessel (e.g., a measuring cylinder). The distance climbed in 10 seconds was measured for each animal over 3 trials with a 5 minute rest period. In a separate experiment using tall thin plastic tubes rather than glass vials, the distance climbed in 30 seconds was also measured. Animals were scored for outcome without knowledge of treatment group. Flies were tested for functional rescue using a behavior assay (climbing assay) where the distance climbed was measured. […] In this assay, climbing was scored blind and each animal was given 3 trials that were then averaged. The climbing of 7 day old animals reared on 0, 10, 100 or 1,000 μM containing food was compared as was the climbing of animals on the day of eclosion. Two trials were performed. In the first, the ability to climb in large glass vials was monitored over 10 seconds. […] The second trial was similar to the first except that animals were tested in tall thin plastic tubes for climbing over 30 seconds. […] The data from the two independent climbing trials are plotted as individual data points in FIGS. 6A and 6B. A higher statistical power (e.g., 0.8) given the observed standard deviations and differences of the means may be achieved by doubling the size of the experiment for the highest concentration and increasing about 10 fold for the lower concentrations.

Row | SMILES | rescue of photoreceptor neurons (historical positive control) [1] | timing of emergence slowed ([2]; 1 mM dose) | toxicity (number of animals that eclose and time of eclosing) ([2]; 10 to 300 μM in the food, below 1 mM, dihydrochloride) | rescue of photoreceptor neurons compared to untreated controls ([3]; 10 μM, 7 days) | suppression of photoreceptor neuron degeneration, retest ([3]; 100 μM vs zero drug controls, dihydrochloride) | rescue of photoreceptor neurons compared to untreated controls ([3]; 100 μM, 7 days on drug-containing food) | rescue of photoreceptor neurons compared to untreated controls ([3]; 1 mM, 7 days) | previously measured optimum concentration for photoreceptor rescue ([3]; concentration in food) | protection of photoreceptors, dose dependence ([3]; day 7, pseudopupil scoring) | suppression of photoreceptor neuron degeneration, retest ([3]; higher doses (300 or 1,000 μM) vs zero drug controls) | climbing behavior, distance climbed in 10 seconds ([4]; 1 mM (1000 μM), 7 day old animals, glass vials, FIG. 5, dihydrochloride) | raw climbing data, FIG. 6 panel A ([4]; 1 mM vs D7ND (Day 7 no drug), legend says measured over 30 seconds) | climbing behavior, distance climbed in 30 seconds ([4]; 10, 100 or 1,000 μM, 7 day old animals, tall thin plastic tubes)
1 | C[C@@H](N)[C@H]1CC[C@H](C(=O)Nc2ccncc2)CC1 [Y-27632] | strongly rescuing |  |  |  |  |  |  |  |  |  |  |  | 
2 | Cc1ccc2c(c1)c1c(n2CCc2ccc(C)nc2)CCN(C)C1.Cl.Cl [dimebon, 2,8-dimethyl-5-(2-(6-methyl-3-pyridyl)-ethyl)-2,3,4,5-tetrahydro-1H-pyrido[4,3-b]indole dihydrochloride] |  | approximately 1 day | generally well tolerated; also recorded: no significant toxicity | lesser but still apparent rescue of neurons | significant improvement; also recorded: significant rescue | statistically significant (p=0.0014) rescue of neurons | still appeared to cause neuronal rescue, but to a lesser extent than the 100 μM or 10 μM dimebon doses | 100 µM | protect photoreceptors in a dose-dependant manner | no statistically demonstrable improvement | significant difference between the control and 1000 μM; also recorded: statistically significant improvement in climbing | statistical difference between D7ND and 1 mM | no statistically demonstrable difference between treated and control groups

Reference: patent US20070117835A1, “Methods and compositions for treating Huntington's disease” (priority 2005, published 2007)
